# Biological target: T1, full-length ATR (Homo sapiens, UniProt Q13535)
# T1 construct: in the presence of 5 nM full-length ATR
# Assay: ATR Inhibition Assay (radioactive-phosphate incorporation)
# Type: biochemical
# Settings: Ki(app); 5 nM full-length ATR, 10 μM ATP, 800 μM target peptide, 25° C.
# Summary of the method: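 Buffer was 50 mM Tris/HCl pH 7.5, 10 mM MgCl2, 1 mM DTT, with 5 nM enzyme, 10 μM [γ-33P]ATP and 800 μM target peptide at 25 °C. Compound was pre-incubated 10 min before ATP start, and the reaction was stopped after 24 h. Phosphocellulose filter capture; Ki(app) came from non-linear regression of background-corrected initial rates.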
# T1 sequence (Q13535 whole entry): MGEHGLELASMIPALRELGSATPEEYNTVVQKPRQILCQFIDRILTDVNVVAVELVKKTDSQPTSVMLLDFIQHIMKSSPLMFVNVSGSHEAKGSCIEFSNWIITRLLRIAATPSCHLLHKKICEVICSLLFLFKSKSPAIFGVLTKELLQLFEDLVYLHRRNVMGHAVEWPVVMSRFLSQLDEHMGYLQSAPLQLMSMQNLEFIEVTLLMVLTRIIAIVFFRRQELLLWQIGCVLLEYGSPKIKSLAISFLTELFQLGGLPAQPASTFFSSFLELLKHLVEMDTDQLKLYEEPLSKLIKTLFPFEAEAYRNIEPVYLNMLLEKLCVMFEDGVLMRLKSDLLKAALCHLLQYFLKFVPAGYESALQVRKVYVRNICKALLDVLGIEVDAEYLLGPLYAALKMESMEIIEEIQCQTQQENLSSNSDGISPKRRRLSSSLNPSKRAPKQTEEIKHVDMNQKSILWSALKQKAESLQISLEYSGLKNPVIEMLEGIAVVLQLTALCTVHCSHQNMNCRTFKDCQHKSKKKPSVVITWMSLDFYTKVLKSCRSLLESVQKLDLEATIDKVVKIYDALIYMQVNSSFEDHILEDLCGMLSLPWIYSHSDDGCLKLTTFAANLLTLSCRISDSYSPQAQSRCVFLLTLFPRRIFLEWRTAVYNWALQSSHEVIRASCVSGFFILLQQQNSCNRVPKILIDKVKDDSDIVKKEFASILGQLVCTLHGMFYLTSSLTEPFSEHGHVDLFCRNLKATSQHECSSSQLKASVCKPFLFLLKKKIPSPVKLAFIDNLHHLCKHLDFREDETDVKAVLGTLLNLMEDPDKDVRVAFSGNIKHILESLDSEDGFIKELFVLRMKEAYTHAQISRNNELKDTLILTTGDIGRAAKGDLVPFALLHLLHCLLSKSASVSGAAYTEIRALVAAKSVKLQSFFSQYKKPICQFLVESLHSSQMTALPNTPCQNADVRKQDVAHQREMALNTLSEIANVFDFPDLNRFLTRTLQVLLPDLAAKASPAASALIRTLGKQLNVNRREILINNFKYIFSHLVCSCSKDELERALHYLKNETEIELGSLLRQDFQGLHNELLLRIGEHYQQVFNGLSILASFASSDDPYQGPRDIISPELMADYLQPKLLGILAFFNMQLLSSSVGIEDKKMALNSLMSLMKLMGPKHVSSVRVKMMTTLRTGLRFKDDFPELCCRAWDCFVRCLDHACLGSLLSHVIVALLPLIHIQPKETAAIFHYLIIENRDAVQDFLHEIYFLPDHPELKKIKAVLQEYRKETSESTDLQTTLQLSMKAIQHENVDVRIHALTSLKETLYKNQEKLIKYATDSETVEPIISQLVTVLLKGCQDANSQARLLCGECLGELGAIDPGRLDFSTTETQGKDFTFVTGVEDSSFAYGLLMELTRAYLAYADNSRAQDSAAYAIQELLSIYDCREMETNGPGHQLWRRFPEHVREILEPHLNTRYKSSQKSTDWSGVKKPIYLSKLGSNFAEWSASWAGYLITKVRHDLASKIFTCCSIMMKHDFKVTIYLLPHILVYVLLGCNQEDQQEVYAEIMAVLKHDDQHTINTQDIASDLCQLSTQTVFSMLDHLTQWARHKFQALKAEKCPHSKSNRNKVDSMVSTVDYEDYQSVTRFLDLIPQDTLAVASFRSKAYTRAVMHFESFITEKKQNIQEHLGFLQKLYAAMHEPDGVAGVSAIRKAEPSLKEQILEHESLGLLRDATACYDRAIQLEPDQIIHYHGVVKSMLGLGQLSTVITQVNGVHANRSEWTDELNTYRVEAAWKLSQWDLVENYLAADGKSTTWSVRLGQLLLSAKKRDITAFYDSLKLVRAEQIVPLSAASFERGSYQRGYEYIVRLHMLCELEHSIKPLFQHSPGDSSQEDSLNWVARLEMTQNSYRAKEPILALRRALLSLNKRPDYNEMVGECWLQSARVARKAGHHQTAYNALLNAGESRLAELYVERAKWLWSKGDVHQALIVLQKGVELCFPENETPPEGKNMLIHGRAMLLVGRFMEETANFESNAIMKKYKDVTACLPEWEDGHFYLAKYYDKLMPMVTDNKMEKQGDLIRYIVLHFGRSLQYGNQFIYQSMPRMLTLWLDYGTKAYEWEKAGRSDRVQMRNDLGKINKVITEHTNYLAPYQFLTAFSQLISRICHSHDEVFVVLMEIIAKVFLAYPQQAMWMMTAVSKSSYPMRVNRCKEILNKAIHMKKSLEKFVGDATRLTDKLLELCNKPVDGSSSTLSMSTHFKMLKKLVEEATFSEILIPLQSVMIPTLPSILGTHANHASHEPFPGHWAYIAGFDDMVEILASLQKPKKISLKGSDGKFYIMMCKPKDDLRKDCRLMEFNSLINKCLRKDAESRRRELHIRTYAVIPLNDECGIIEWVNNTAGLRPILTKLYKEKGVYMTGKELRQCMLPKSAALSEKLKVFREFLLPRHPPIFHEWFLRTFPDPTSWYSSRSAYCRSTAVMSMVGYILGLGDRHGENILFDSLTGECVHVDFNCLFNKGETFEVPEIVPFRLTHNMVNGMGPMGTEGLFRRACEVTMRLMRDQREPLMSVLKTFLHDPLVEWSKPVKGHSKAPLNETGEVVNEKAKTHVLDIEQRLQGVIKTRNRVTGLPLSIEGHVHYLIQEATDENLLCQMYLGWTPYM
row,SMILES,Ki
1,"Nc1ncc(N2CCN(S(=O)(=O)c3ccccc3)CC2)nc1-c1nnc(-c2ccccc2)o1 [Compound I-196, 3-(5-phenyl-1,3,4-oxadiazol-2-yl)-5-(4-(phenylsulfonyl)piperazin-1-yl)pyrazin-2-amine]",100 to 1000 nM
2,"CCC(=O)NC1[C@H]2CN(c3cnc(N)c(-c4nnc(-c5ccc(CNC)cc5)o4)n3)C[C@@H]12 (stereo partly drawn) [Compound I-358, N-[(1S,5R)-3-[5-amino-6-[5-[4-(methylaminomethyl)phenyl]-1,3,4-oxadiazol-2-yl]pyrazin-2-yl]-3-azabicyclo[3.1.0]hexan-6-yl]propanamide]",100 to 1000 nM
3,"Cc1cccc(C)c1C(=O)N1CCN(c2cnc(N)c(-c3nnc(-c4ccccc4)o3)n2)CC1 [Compound I-258, (4-(5-amino-6-(5-phenyl-1,3,4-oxadiazol-2-yl)pyrazin-2-yl)piperazin-1-yl)(2,6-dimethylphenyl)methanone]",100 to 1000 nM
4,"COCCOC(=O)N1CCN(c2cnc(N)c(C(=O)Nc3ccccn3)n2)CC1 [Compound I-237, 2-methoxyethyl 4-(5-amino-6-(pyridin-2-ylcarbamoyl)pyrazin-2-yl)piperazine-1-carboxylate]",1000 to 10000 nM
5,"Nc1ncc(N2CCN(C(=O)c3c(F)cccc3F)CC2)nc1C(=O)Nc1ccccn1 [Compound I-149, 3-amino-6-(4-(2,6-difluorophenylcarbonyl)piperazin-1-yl)-N-(pyridin-2-yl)pyrazine-2-carboxamide]",100 to 1000 nM
6,"Nc1ncc(N2CC[C@H](NS(=O)(=O)c3ccccc3)C2)nc1-c1nc2ccccc2[nH]1 [Compound I-107, (S)-N-(1-(5-amino-6-(1H-benzo[d]imidazol-2-yl)pyrazin-2-yl)pyrrolidin-3-yl)benzenesulfonamide]",100 to 1000 nM
7,"CCS(=O)(=O)N1CC=C(c2cnc(N)c(-c3nc4cc(C(C)(C)C)ccc4[nH]3)n2)CC1 [Compound I-156, 3-(5-tert-butyl-1H-benzo[d]imidazol-2-yl)-5-(1-(ethylsulfonyl)-1,2,3,6-tetrahydropyridin-4-yl)pyrazin-2-amine]",1000 to 10000 nM
8,"Nc1ncc(N2CCN(S(=O)(=O)C3CCCC3)CC2)nc1-c1nnc(-c2ccccc2)o1 [Compound I-92, 5-(4-(cyclopentylsulfonyl)piperazin-1-yl)-3-(5-phenyl-1,3,4-oxadiazol-2-yl)pyrazin-2-amine]",100 to 1000 nM
9,"CCS(=O)(=O)N1CCN(c2cnc(N)c(-c3nnc(-c4ccc(F)cc4)o3)n2)CC1 [Compound I-292, 5-(4-ethylsulfonylpiperazin-1-yl)-3-[5-(4-fluorophenyl)-1,3,4-oxadiazol-2-yl]pyrazin-2-amine]",100 to 1000 nM
10,"Nc1ncc(C2=CCN(C(=O)COc3ccccc3)CC2)nc1-c1nnc(-c2ccccc2)o1 [Compound I-126, 1-(4-(5-amino-6-(5-phenyl-1,3,4-oxadiazol-2-yl)pyrazin-2-yl)-5,6-dihydropyridin-1(2H)-yl)-2-phenoxyethanone]",< 100 nM

# Continued, values first:
row,Ki,SMILES
1,100 to 1000 nM,"CN(C)C(=O)N1CC=C(c2cnc(N)c(-c3nc4ccccc4[nH]3)n2)CC1 [Compound I-234, 4-(5-amino-6-(1H-benzo[d]imidazol-2-yl)pyrazin-2-yl)-N,N-dimethyl-5,6-dihydropyridine-1(2H)-carboxamide]"
2,1000 to 10000 nM,"Cc1cccc(C)c1C(=O)N1CCN(c2cnc(N)c(-c3nc4ccccc4[nH]3)n2)CC1 [Compound I-275, (4-(5-amino-6-(1H-benzo[d]imidazol-2-yl)pyrazin-2-yl)piperazin-1-yl)(2,6-dimethylphenyl)methanone]"
3,< 100 nM,"CCS(=O)(=O)N1CCN(c2cnc(N)c(-c3nnc(-c4ccccc4)o3)n2)CC1 [Compound I-18, 5-(4-(ethylsulfonyl)piperazin-1-yl)-3-(5-phenyl-1,3,4-oxadiazol-2-yl)pyrazin-2-amine]"
4,1000 to 10000 nM,"CN(C)CC(=O)N1CCN(c2cnc(N)c(C(=O)Nc3ccccn3)n2)CC1 [Compound I-150, 3-amino-6-(4-(2-(dimethylamino)ethanoyl)piperazin-1-yl)-N-(pyridin-2-yl)pyrazine-2-carboxamide]"
5,1000 to 10000 nM,CNCc1ccc(-c2nnc(-c3nc(C4CC4C(=O)N(C)CCOC)cnc3N)o2)cc1 (stereo not drawn) [Compound I-377]

# — patent US8410112B2, “Compounds useful as inhibitors of ATR kinase” (Vertex Pharmaceuticals Incorporated, priority 2008, dated 2013)
